From patent US10149841B2, “Compound of 3-hydroxyl pyridine, preparation method thereof and pharmaceutical use thereof” (SHENYANG SUNSHINE PHARMACEUTICAL CO. LTD., priority 2015, dated 2018)

Target: HIF Prolyl hydroxylases 2 (PHD2) (Homo sapiens (Human), UniProt Q9GZT9)
Assay: Inhibitory effect on PHD2 by fluorescence polarization (HIF-1α / VBC complex interaction)
Type: biochemical
Conditions: PHD2 0.5 μg/μl, FAM-HIF (556-575) 1 μM, FP readout with GST-VBC complex
Description: Biological Example 2: Detection of Inhibitory Effect of the Compounds on PHD2 (IC50)
The interaction between hypoxia-inducible factor HIF-1α and VBC complex (von Hippel-Lindau protein-Elongin B-Elongin C, VBC) was detected by Fluorescence polarization (FP) method, to measure the enzyme inhibitory activity of the HIF Prolyl hydroxylases 2 (PHD2) inhibitor compounds.
To a NETN (20 mM Tris.HCl, 100 mM NaCl, 1 mM EDTA, 0.5% NP-40, 1 mM PMSF) buffer containing 200 μM ascorbic acid, 20 μM α-ketoglutaric acid, 100 μM FeCl2 was added FAM-HIF (556-575) at a final concentration of 1 μM in the dark. Subsequently, the desired concentration of the test compound or the positive compound was added (the compound was replaced by the buffer in the negative control and the positive control). Finally, PHD2 was added at a final concentration of 0.5 μg/μl (PHD2 was replaced by the buffer in the negative control). They were mixed well and allowed to stand at room temperature for 30 minutes in the dark followed by 95° C. water bath for 1 minute, and then the reaction was terminated. After the temperature drops to room temperature, the sample was prepared well for use. EBC buffer (50 mM Tris.HCl, 120 mM NaCl, 0.5% NP-40) was added to the corresponding wells of a black 96-well test plate. A GST-VBC complex was added to the corresponding test wells at a final concentration of 300 nM (using the wells containing only EBC buffer as blank wells). Subsequently, the corresponding PHD2 prolyl hydroxylation reaction sample was added in the dark as a substrate with a final concentration of 100 nM. After mixing well, the lateral and longitudinal fluorescence intensity values were measured using a full-wavelength multifunctional microplate reader (TECAN infinite M1000) at an excitation wavelength of […] and an emission wavelength of 518 nm.
The fluorescence polarization (mP) was calculated: mP=1000×(lateral value−G factor×longitudinal value)/(lateral value+G factor×longitudinal value)
wherein, lateral value=lateral fluorescence intensity value of test well−lateral fluorescence intensity value of blank well, • longitudinal value=longitudinal fluorescence intensity value of test well−longitudinal fluorescence intensity value of blank well,
PHD2 inhibition rate (%) of the test compound was calculated according to the following formula: Inhibition rate (%)=1−(mP test well−mP negative control well)/(mP positive control well−mP negative control well).
The IC50 was calculated using the non-linear regression data analysis method of Graphpad Prism 4.0 software ([…]).

HIF Prolyl hydroxylases 2 (PHD2), sequence (Q9GZT9 whole entry, species assumed): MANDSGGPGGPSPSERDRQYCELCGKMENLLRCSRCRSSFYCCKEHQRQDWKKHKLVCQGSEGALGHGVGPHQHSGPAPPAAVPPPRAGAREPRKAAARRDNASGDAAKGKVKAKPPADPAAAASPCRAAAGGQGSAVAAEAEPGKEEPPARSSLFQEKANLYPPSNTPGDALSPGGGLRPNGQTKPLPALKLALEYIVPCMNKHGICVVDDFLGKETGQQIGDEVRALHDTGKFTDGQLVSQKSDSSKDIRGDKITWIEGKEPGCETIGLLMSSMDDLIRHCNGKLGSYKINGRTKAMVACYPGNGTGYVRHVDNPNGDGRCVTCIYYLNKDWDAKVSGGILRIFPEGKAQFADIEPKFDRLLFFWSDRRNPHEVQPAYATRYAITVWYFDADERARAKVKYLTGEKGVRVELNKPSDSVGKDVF

| Structure (SMILES) | IC50 [µM] |
| --- | --- |
| O=C(O)CNC(=O)c1ncc(Oc2ccccc2)cc1O [Compound 1, 2-(3-hydroxy-5-phenoxy-2-pyridylformamido) acetic acid] | 84 |
| Cc1cccc(Oc2cnc(C(=O)NCC(=O)O)c(O)c2)c1C [Compound 5, 2-(5-(2,3-dimethylphenoxy)-3-hydroxypyridine-2-formamido) acetic acid] | 237 |
| O=C(O)CNC(=O)c1ncc(Oc2ccc3ccccc3c2)cc1O [Compound 8, 2-(3-hydroxy-5-(naphthalen-2-oxo)pyridine-2-formamido) acetic acid] | 91 |
| O=C(O)CNC(=O)c1ncc(Oc2cccc(F)c2F)cc1O [Compound 9, 2-(5-(2,3-difluorophenoxy)-3-hydroxypyridine-2-formamido) acetic acid] | 15 |

Further lines, results first:

| IC50 [µM] | Structure (SMILES) |
| --- | --- |
| 63 | Cc1ccc(Oc2cnc(C(=O)NCC(=O)O)c(O)c2)c(C)c1 [Compound 19, 2-(5-(2,4-dimethylphenoxy)-3-hydroxypyridine-2-formamido) acetic acid] |
| 236 | O=C(O)CNC(=O)c1ncc(Oc2cccc(Cl)c2)cc1O [Compound 22, 2-(5-(3-chlorophenoxy)-3-hydroxypyridine-2-formamido) acetic acid] |
